Experiments:
Assay in all cases: relative viability (nuclei count vs DMSO), 5 days (fraction); higher = more cells survive
Obatoclax + Decitabine = compound: COC1=CC(c2cc3ccccc3[nH]2)=N/C1=C\c1[nH]c(C)cc1C [Obatoclax] + Nc1ncn([C@H]2C[C@H](O)[C@@H](CO)O2)c(=O)n1 [Decitabine] (partner 2 µM)
Outline: (§1)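 Lung cancer cell lines in 1536-well plates got either a single drug or a fixed anchor-drug dose together with five library-drug doses (not always all listed) in √10 steps, by pin tool, on the day after seeding. Nuclei were counted after 5 days, and relative viability is the treated-to-vehicle ratio of nuclei counts. Values are medians of duplicate plates.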

Obatoclax + Pictilisib = compound: COC1=CC(c2cc3ccccc3[nH]2)=N/C1=C\c1[nH]c(C)cc1C [Obatoclax] + CS(=O)(=O)N1CCN(Cc2cc3nc(-c4cccc5[nH]ncc45)nc(N4CCOCC4)c3s2)CC1 [Pictilisib] (partner 1 µM)
Outline: as §1

[1] = compound: CC1=CC(=NN1)NC2=CC(=NC(=N2)/C=C/C3=CC=CC=C3)N4CCN(CC4)C + Cc1cc(Nc2cc(N3CCN(C)CC3)nc(Sc3ccc(NC(=O)C4CC4)cc3)n2)n[nH]1 [Tozasertib] (partner 0.1 µM)
Outline: as §1

Bortezomib + Vorinostat = compound: CC(C)C[C@H](NC(=O)[C@H](Cc1ccccc1)NC(=O)c1cnccn1)B(O)O [Bortezomib] + O=C(CCCCCCC(=O)Nc1ccccc1)NO [Vorinostat] (partner 1 µM)
Outline: as §1

## NCI-H650
Obatoclax + Decitabine; first compound 0.01 µM
  relative viability: 0.299
Obatoclax + Decitabine; first compound 0.03162 µM
  relative viability: 0.312
Obatoclax + Decitabine; first compound 0.3162 µM
  relative viability: 0.237
Obatoclax + Decitabine; first compound 1 µM
  relative viability: 0.217
Obatoclax + Pictilisib; first compound 0.01 µM
  relative viability: 0.812
Obatoclax + Pictilisib; first compound 0.03162 µM
  relative viability: 0.722
Obatoclax + Pictilisib; first compound 0.1 µM
  relative viability: 0.597
Obatoclax + Pictilisib; first compound 0.3162 µM
  relative viability: 0.462
Obatoclax + Pictilisib; first compound 1 µM
  relative viability: 0.333
[1]; first compound 0.253 µM
  relative viability: 0.822
[1]; first compound 0.8 µM
  relative viability: 0.603
[1]; first compound 2.53 µM
  relative viability: 0.4
[1]; first compound 8 µM
  relative viability: 0.173
Bortezomib + Vorinostat; first compound 0.0002 µM
  relative viability: 0.395
Bortezomib + Vorinostat; first compound 0.000632 µM
  relative viability: 0.566
Bortezomib + Vorinostat; first compound 0.002 µM
  relative viability: 0.452
Bortezomib + Vorinostat; first compound 0.006325 µM
  relative viability: 0.429
Bortezomib + Vorinostat; first compound 0.02 µM
  relative viability: 0.121
